Test results reported in patent US4313943A, “7-Chloro-2,3-dihydro-5-phenyl-1-propargyl-1H-1,4-benzodiazepine-2-one, and a pharmaceutical composition thereof” (priority 1972, dated 1982).

Tests used:
[1] = Modifications in the electrocorticogram (ECoG) of unanesthetized animals, R index; assay type: in vivo; conditions: for duration of effect on spontaneous electrogenesis / latency of the effects: 1.5 mg/kg; for average duration of effect on spontaneous electrogenesis: 3.75 mg/kg; for Cortical reactivity induced by exteroceptive stimulation: 30 mg/kg; for duration of effects on spontaneous electrogenesis: 7.5, 15 and 30 mg/kg
Procedure: Twenty-four hours prior to the test, the surface of a test animal's skull was exposed and stainless steel electrodes were screwed through the lamina externa to make contact with the dura matter in the frontal, parietal and occipital regions, on both sides of the median and transverse sutures. The ECoG was recorded on a REEGA MINI HUIT (Alvar Electronic) encephalograph with a transverse circuit, with bi-frontal, bi-parietal and bi-occipital leads and a longitudinal circuit, with fronto-pariental and parieto-occipital leads on both left and right. One track was used to record respiration, with leads from two steel needles placed under the shin, on either side of the thorax.
Some test animals were kept in restraint cases placed in a relatively soundproof room and some were left free to move in metal cases measuring 40×50×30 cm, which were also kept in a relatively quiet environment.
The activity of the test compounds studied was judged on the one hand by the pattern of spontaneous electrogenesis, especially by the relative degree to which the three basic rhythms of the ECoG in the animals were represented; the theta rhythm (4-8 c/sec.), predominant and characteristic of the state of wakefulness in the posterior regions; bursts of rapid spiked waves (alpha rhythm, 9-15 c/sec.) recorded in the course of diffused wakefulness, and slow waves (delta rhythm, 0.5-3 c/sec.) which are absent in a state of wakefulness except in pathological conditions or in the presence of medicinal substances, a rhythm characteristic of slow-wave sleep. The rapid, low-voltage beta rhythm, not very characteristic of the ECoG in the test animals used and primarily superimposed on the other rhythms, was not analyzed.
Possible modifications in cortical reactivity were also investigated, using two types of stimulation, one comprised an auditory stimulus (whistle blasts) and the other a nociceptive stimulus delivered to the cutaneous nerve endings by pinching the dorsal skin with Kocher's clamps.
To the foregoing qualitative analysis, a quantitative analysis concerning the evolution of spontaneous electrogenesis under the influence of test compounds 1 and 4 was added. The activity of the two compounds was judged by variations in an "R" index, defined as the ratio between the theta waking rhythm, slow waves and bursts of rapid spiked waves. Initially, R was evaluated quantitatively on a scale from 0 to 4 and after this initial estimate, variations in the R index were rated on a scale from 0 to 5 as follows:
1. Maintenance of the value calculated in making the reference tracking (basal value) 0 since variation is nil.
2. Reduction in basal values
(a) reduction of basal value by one-half -1.
(b) observed value between 1/2 and 1/5 of basal value -2.
(c) observed value between 1/5 and 1/10 of basal value -3.
(d) observed value between 1/10 and 1/20 of basal value -4.
(e) observed value lower than 1/20 of basal value, reflecting maximum perturbation of spontaneous ECoG and expressing either a pathological condition or a state of slow-wave sleep, with the absence of theta rhythms and the exclusive presence of slow waves and/or bursts of rapid spiked waves -5.
Once the various values were allocated to each animal, the mean of these values were calculated for each experimental period. From these means, calculations were made of the percentages of variation as compared to a theoretical maximum value of -5 for each experimental period. The percentage for each period was calculated every 30 minutes for 7 hours, with a theoretical total of -10 per hour, then between 7 and 48 hours (theoretical total […]) and between the time of administering the test compound and the 48th hour (theoreticaltotal -90). Variations of 10% were not regarded as significant. All dosages were administered intragastrically through the esophageal tube. […]

[2] = Motor coordination in rats (rotarod, Dunham and Miya 1957); conditions: for TD50: rat, rotarod, po
[3] = Postural tonus in restrained animals; assay type: in vivo; conditions: for reduction in postural tonus: more pronounced effect of compound 4 especially at 30 mg/kg
Description: The final observations were concerned with the influence of the test compounds on postural tonus. Evaluationg postural tonus in the animals kept in restraint cages was somewhat difficult. It was possible to judge this aspect by pulling the hind quarters of the animals out of the cage and observing whether the animals was capable of returning spontaneously to its position inside the cage, which control animals were able to do immediately.

[4] = 7.5 mg/kg intragastric, 2 Hours
[5] = 7.5 mg/kg intragastric, 3 Hours
[6] = 7.5 mg/kg intragastric, 4 Hours
[7] = 7.5 mg/kg intragastric, 5 Hours
[8] = 7.5 mg/kg intragastric, 6 Hours
[9] = 7.5 mg/kg intragastric, 7 Hours
[10] = 7.5 mg/kg intragastric, 48 Hours (7-48 h)
[11] = 7.5 mg/kg intragastric, After 48 Hours (0-48 h total)
[12] = 15.0 mg/kg intragastric, 1 Hour
[13] = 15.0 mg/kg intragastric, 2 Hours
[14] = 15.0 mg/kg intragastric, 3 Hours
[15] = 15.0 mg/kg intragastric, 4 Hours
[16] = 15.0 mg/kg intragastric, 5 Hours
[17] = 15.0 mg/kg intragastric, 6 Hours
[18] = 15.0 mg/kg intragastric, 7 Hours
[19] = 15.0 mg/kg intragastric, 48 Hours (7-48 h)
[20] = 15.0 mg/kg intragastric, After 48 Hours (0-48 h total)
[21] = 30.0 mg/kg intragastric, 1 Hour
[22] = 30.0 mg/kg intragastric, 2 Hours
[23] = 30.0 mg/kg intragastric, 3 Hours
[24] = 30.0 mg/kg intragastric, 4 Hours
[25] = 30.0 mg/kg intragastric, 5 Hours
[26] = 30.0 mg/kg intragastric, 6 Hours
[27] = 30.0 mg/kg intragastric, 7 Hours
[28] = 30.0 mg/kg intragastric, 48 Hours (7-48 h)
[29] = 30.0 mg/kg intragastric, After 48 Hours (0-48 h total)

SMILES: C#CCN1C(=O)CN=C(c2ccccc2Cl)c2cc(Cl)ccc21 [Compound 4, 7-chloro-2,3-dihydro-5-(2-chlorophenyl)-1-propargyl-1,H-1,4-benzodiazepine-2-one]
- duration of effect on spontaneous electrogenesis [1]: 2 h
- latency of the effects [1]: 25 min
- average duration of effect on spontaneous electrogenesis [1]: 4 h
- R index variation, Mean ([1]; 7.5 mg/kg intragastric, 1 Hour): -9.5
- R index, % of Variation ([1]; 7.5 mg/kg intragastric, 1 Hour): -63.3%
- R index variation, Mean [1, 4]: -7.5
- R index, % of Variation [1, 4]: -75.0%
- R index variation, Mean [1, 5]: -6.0
- R index, % of Variation [1, 5]: -60.0%
- R index variation, Mean [1, 6]: -3.0
- R index, % of Variation [1, 6]: -30.0%
- R index variation, Mean [1, 7]: -4.5
- R index, % of Variation [1, 7]: -45.0%
- R index variation, Mean [1, 8]: -1.5
- R index, % of Variation [1, 8]: -15.0%
- R index variation, Mean [1, 9]: -1.00
- R index, % of Variation [1, 9]: -10.0%
- R index variation, Mean [1, 10]: 0
- R index, % of Variation [1, 10]: 0%
- R index variation, Mean [1, 11]: -33.0
- R index, % of Variation [1, 11]: -36.7%
- R index variation, Mean [1, 12]: -13.0
- R index, % of Variation [1, 12]: -86.7%
- R index variation, Mean [1, 13]: -8.5
- R index, % of Variation [1, 13]: -85.0%
- R index variation, Mean [1, 14]: -7.0
- R index, % of Variation [1, 14]: -70.0%
- R index variation, Mean [1, 15]: -5.5
- R index, % of Variation [1, 15]: -55.0%
- R index variation, Mean [1, 16]: -5.0
- R index, % of Variation [1, 16]: -50.0%
- R index variation, Mean [1, 17]: -1.5
- R index, % of Variation [1, 17]: -15.0%
- R index variation, Mean [1, 18]: -1.50
- R index, % of Variation [1, 18]: -15.0%
- R index variation, Mean [1, 19]: +1.50
- R index, % of Variation [1, 19]: +10.0%
- R index variation, Mean [1, 20]: -40.5
- R index, % of Variation [1, 20]: -45.0%
- Cortical reactivity induced by exteroceptive stimulation [1]: remained unchanged
- R index variation, Mean [1, 21]: -6.99
- R index, % of Variation [1, 21]: -46.7%
- R index variation, Mean [1, 22]: -5.32
- R index, % of Variation [1, 22]: -53.2%
- R index variation, Mean [1, 23]: -6.32
- R index, % of Variation [1, 23]: -63.2%
- R index variation, Mean [1, 24]: -4.99
- R index, % of Variation [1, 24]: -49.9%
- R index variation, Mean [1, 25]: -2.99
- R index, % of Variation [1, 25]: -29.9%
- R index variation, Mean [1, 26]: -2.33
- R index, % of Variation [1, 26]: -23.3%
- R index variation, Mean [1, 27]: -0.66
- R index, % of Variation [1, 27]: -6.6%
- R index variation, Mean [1, 28]: -1.98
- R index, % of Variation [1, 28]: -13.2%
- R index variation, Mean [1, 29]: -31.58
- R index, % of Variation [1, 29]: -35.1%
- duration of effects on spontaneous electrogenesis [1]: at least 5 hours
- % Uncoordinated Animals ([2]; 12 mg/kg/os): 37.5%
- % Uncoordinated Animals ([2]; 17 mg/kg/os): 50%
- % Uncoordinated Animals ([2]; 24 mg/kg/os): 87.5%
- Potency Against Comp. 1 ([2]; C.L. (3.09. 6.79), X^2 parallelism 0.005): 4.58
- TD50 [2]: 14.9 mg/kg
- animals with no attempt to resume previous posture ([3]; 30 mg/kg, at 21/2 hours): one animal out of every three
- reduction in postural tonus [3]: slightly more pronounced effect

SMILES: C#CCN1C(=O)CN=C(c2ccccc2)c2cc(Cl)ccc21 [Compound 1, 7-chloro-2,3-dihydro-5-phenyl-1-propargyl-1H-1,4-benzodiazepin-2-one]
- duration of effect on spontaneous electrogenesis [1]: 2 h
- latency of the effects [1]: 21 min
- average duration of effect on spontaneous electrogenesis [1]: 4 h
- R index variation, Mean ([1]; 7.5 mg/kg intragastric, 1 Hour): -7.5
- R index, % of Variation ([1]; 7.5 mg/kg intragastric, 1 Hour): -50.0%
- R index variation, Mean [1, 4]: -6.0
- R index, % of Variation [1, 4]: -60.0%
- R index variation, Mean [1, 5]: -4.5
- R index, % of Variation [1, 5]: -45.0%
- R index variation, Mean [1, 6]: -4.0
- R index, % of Variation [1, 6]: -40.0%
- R index variation, Mean [1, 7]: -3.0
- R index, % of Variation [1, 7]: -30.0%
- R index variation, Mean [1, 8]: -2.0
- R index, % of Variation [1, 8]: -20.0%
- R index variation, Mean [1, 9]: -1.5
- R index, % of Variation [1, 9]: -15.0%
- R index variation, Mean [1, 10]: -0.5
- R index, % of Variation [1, 10]: -3.3%
- R index variation, Mean [1, 11]: -29.0
- R index, % of Variation [1, 11]: -32.2%
- R index variation, Mean [1, 12]: -11.5
- R index, % of Variation [1, 12]: -76.7%
- R index variation, Mean [1, 13]: -7.0
- R index, % of Variation [1, 13]: -70.0%
- R index variation, Mean [1, 14]: -5.5
- R index, % of Variation [1, 14]: -55.0%
- R index variation, Mean [1, 15]: -5.5
- R index, % of Variation [1, 15]: -55.0%
- R index variation, Mean [1, 16]: -4.0
- R index, % of Variation [1, 16]: -40.0%
- R index variation, Mean [1, 17]: -2.0
- R index, % of Variation [1, 17]: -20.0%
- R index variation, Mean [1, 18]: -2.0
- R index, % of Variation [1, 18]: -20.0%
- R index variation, Mean [1, 19]: +1.5
- R index, % of Variation [1, 19]: +10.0%
- R index variation, Mean [1, 20]: -36.0
- R index, % of Variation [1, 20]: -40.0%
- Cortical reactivity induced by exteroceptive stimulation [1]: remained unchanged
- R index variation, Mean [1, 21]: -8.66
- R index, % of Variation [1, 21]: -57.7%
- R index variation, Mean [1, 22]: -6.99
- R index, % of Variation [1, 22]: -69.9%
- R index variation, Mean [1, 23]: -6.99
- R index, % of Variation [1, 23]: -69.9%
- R index variation, Mean [1, 24]: -6.33
- R index, % of Variation [1, 24]: -63.3%
- R index variation, Mean [1, 25]: -4.33
- R index, % of Variation [1, 25]: -43.3%
- R index variation, Mean [1, 26]: -1.32
- R index, % of Variation [1, 26]: -13.2%
- R index variation, Mean [1, 27]: -0.99
- R index, % of Variation [1, 27]: -9.9%
- R index variation, Mean [1, 28]: -1.66
- R index, % of Variation [1, 28]: -11.1%
- R index variation, Mean [1, 29]: -37.3
- R index, % of Variation [1, 29]: -41.4%
- duration of effects on spontaneous electrogenesis [1]: at least 5 hours
- % Uncoordinated Animals ([2]; 48 mg/kg/os): 25%
- % Uncoordinated Animals ([2]; 68 mg/kg/os): 50%
- % Uncoordinated Animals ([2]; 96 mg/kg/os): 75%
- dose needed for same motor uncoordination as after Compound 3 or 4 ([2]; oral): about five times more
- TD50 [2]: 67.9 mg/kg
- reduction in postural tonus [3]: slight reduction in the tonus
